Source: patent US8178658B2 (Dow AgroSciences, LLC, priority 2008, dated 2012)

What was measured:
[1] = tested on: beet armyworm (BAW; Spodoptera exigua: Lepidoptera); test: 96-well microtiter plate-based high throughput (HTS) diet bioassay on beet armyworm (BAW HTS); format: in vivo; conditions: BAW eggs, 12 μg test compound per well, mortality at 6 d post-treatment, mortality class
Procedure, shortened: (§1)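 Two diet-incorporation-style surface tests were run. Eggs infested treated diet (12 μg/well) in plates incubated dark at 29° C, with mortality taken on day 6 from six replicates. Separately, second-instar larvae fed on treated diet (50 μg/cm^2) at 25° C, 14:10 L:D, with six-day mortality averaged over eight wells.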

[2] = tested on: beet armyworm (BAW; Spodoptera exigua: Lepidoptera); test: 128-well diet tray assay on beet armyworm (BAW 50); format: in vivo; conditions: 128-well diet tray assay, 50 μg/cm^2 of test compound on diet, second instar BAW larvae, mortality class
Procedure, shortened: as §1

[3] = 96-well microtiter plate HTS diet assay

CCOC1C(OC)C(C)OC(ON=Cc2ccc(-c3ncn(-c4ccc(C(F)(F)F)nc4)n3)cc2)C1OC (stereo not shown) [Compound 121] was tested, and the “BAW HTS” value ([1]; 96-well HTS diet bioassay) was “B (either (1) the compound was tested and less than 50 percent mortality was observed or (2) the compound was not tested)”, the “BAW HTS” value [1, 3] was “B (either (1) the compound was tested and less than 50 percent mortality was observed or (2) the compound was not tested)” and the “BAW 50 ug/cm2” value [2] was “A (the compound was tested and at least 50 percent mortality was observed)”.

CCOC1C(OC)C(C)OC(ON=Cc2ccc(-c3ncn(-c4ccc(OC(F)(F)F)cc4)n3)cn2)C1OC (stereo not shown) [Compound 123] was tested, and the “BAW HTS” value ([1]; 96-well HTS diet bioassay) was “B (either (1) the compound was tested and less than 50 percent mortality was observed or (2) the compound was not tested)”, the “BAW HTS” value [1, 3] was “B (either (1) the compound was tested and less than 50 percent mortality was observed or (2) the compound was not tested)” and the “BAW 50 ug/cm2” value [2] was “A (the compound was tested and at least 50 percent mortality was observed)”.

With CCOC1C(OC)C(C)OC(ON=Cc2ccc(-c3ncn(-c4ccc(OC(F)(F)C(F)(F)Br)cc4)n3)cc2)C1OC (stereo not shown) [Compound 124] the “BAW HTS” value ([1]; 96-well HTS diet bioassay) was “B (either (1) the compound was tested and less than 50 percent mortality was observed or (2) the compound was not tested)”, the “BAW HTS” value [1, 3] was “B (either (1) the compound was tested and less than 50 percent mortality was observed or (2) the compound was not tested)” and the “BAW 50 ug/cm2” value [2] was “A (the compound was tested and at least 50 percent mortality was observed)”.

In the case of CCOc1ccc(-n2cnc(-c3ccc(C=NOC4OC(C)C(OC)C(OCC)C4OC)cc3)n2)cc1 (stereo not shown) [Compound 125], the “BAW HTS” value ([1]; 96-well HTS diet bioassay) is reported as “B (either (1) the compound was tested and less than 50 percent mortality was observed or (2) the compound was not tested)”, the “BAW HTS” value [1, 3] is reported as “B (either (1) the compound was tested and less than 50 percent mortality was observed or (2) the compound was not tested)” and the “BAW 50 ug/cm2” value [2] is reported as “A (the compound was tested and at least 50 percent mortality was observed)”.

In the case of CCOC1C(OC)C(C)OC(ON=Cc2ccc(-c3ncn(-c4ccc(C#N)cc4)n3)cc2)C1OC (stereo not shown) [Compound 126], the “BAW HTS” value ([1]; 96-well HTS diet bioassay) is reported as “B (either (1) the compound was tested and less than 50 percent mortality was observed or (2) the compound was not tested)”, the “BAW HTS” value [1, 3] is reported as “B (either (1) the compound was tested and less than 50 percent mortality was observed or (2) the compound was not tested)” and the “BAW 50 ug/cm2” value [2] is reported as “A (the compound was tested and at least 50 percent mortality was observed)”.

For CCOC1C(OC)C(C)OC(ON=Cc2ccc(-c3ncn(-c4ccc([N+](=O)[O-])cc4)n3)cc2)C1OC (stereo not shown) [Compound 127], the “BAW HTS” value ([1]; 96-well HTS diet bioassay) was “B (either (1) the compound was tested and less than 50 percent mortality was observed or (2) the compound was not tested)”, the “BAW HTS” value [1, 3] was “B (either (1) the compound was tested and less than 50 percent mortality was observed or (2) the compound was not tested)” and the “BAW 50 ug/cm2” value [2] was “A (the compound was tested and at least 50 percent mortality was observed)”.

In the case of CCOC1C(OC)C(C)OC(ON=Cc2ccc(-c3nc(-c4ccc(OC(F)(F)F)cc4)ns3)cc2)C1OC (stereo not shown) [Compound 128], the “BAW HTS” value ([1]; 96-well HTS diet bioassay) is reported as “B (either (1) the compound was tested and less than 50 percent mortality was observed or (2) the compound was not tested)”, the “BAW HTS” value [1, 3] is reported as “B (either (1) the compound was tested and less than 50 percent mortality was observed or (2) the compound was not tested)” and the “BAW 50 ug/cm2” value [2] is reported as “A (the compound was tested and at least 50 percent mortality was observed)”.

For CCOC1C(OC)C(C)OC(ON=Cc2ccc(-c3nsc(-c4ccc(OC(F)(F)F)cc4)n3)cc2)C1OC (stereo not shown) [Compound 129], the “BAW HTS” value ([1]; 96-well HTS diet bioassay) was “B (either (1) the compound was tested and less than 50 percent mortality was observed or (2) the compound was not tested)”, the “BAW HTS” value [1, 3] was “B (either (1) the compound was tested and less than 50 percent mortality was observed or (2) the compound was not tested)” and the “BAW 50 ug/cm2” value [2] was “A (the compound was tested and at least 50 percent mortality was observed)”.

With COC1C(C)OC(ON=Cc2ccc(-n3nnc(-c4ccc(C(F)(F)F)cc4)n3)cc2)C(OC)C1OC (stereo not shown) [Compound 131] the “BAW HTS” value ([1]; 96-well HTS diet assay) was “B (either (1) the compound was tested and less than 50 percent mortality was observed or (2) the compound was not tested)”, the “BAW HTS” value [1, 3] was “B (either (1) the compound was tested and less than 50 percent mortality was observed or (2) the compound was not tested)” and the “BAW 50 ug/cm2” value [2] was “B (either (1) the compound was tested and less than 50 percent mortality was observed or (2) the compound was not tested)”.

With CO[C@@H]1[C@@H](OC)[C@H](C)O[C@@H](O/N=C/c2ccc(-c3ccnc(-c4ccc(OC(F)(F)F)cc4)c3)cc2)[C@@H]1OC [Compound 132] the “BAW HTS” value [1, 3] was “B (either (1) the compound was tested and less than 50 percent mortality was observed or (2) the compound was not tested)”, the pest or weed control at 12 µg/well, 12 µg/well ([1]; Spodoptera exigua, 144 h, 96-well HTS diet assay, read-out: BAW HTS) was less than 50% and the “BAW 50 ug/cm2” value [2] was “A (the compound was tested and at least 50 percent mortality was observed)”. For the same compound, the pest or weed control at 50 µg/cm2, 50 µg/cm2 ([2]; Spodoptera exigua, 144 h, read-out: BAW 50 ug/cm2) was greater than 50%.

COC1C(C)OC(ON=Cc2ccc(-c3cc(-c4ccc(OC(F)(F)F)cc4)ccn3)cc2)C(OC)C1OC (stereo not shown) [Compound 133] was tested, and the “BAW HTS” value ([1]; 96-well HTS diet assay) was “B (either (1) the compound was tested and less than 50 percent mortality was observed or (2) the compound was not tested)”, the “BAW HTS” value [1, 3] was “B (either (1) the compound was tested and less than 50 percent mortality was observed or (2) the compound was not tested)” and the “BAW 50 ug/cm2” value [2] was “A (the compound was tested and at least 50 percent mortality was observed)”.

With COC1C(C)OC(ON=Cc2ccc(-c3cccc(-c4ccc(OC(F)(F)F)cc4)n3)cc2)C(OC)C1OC (stereo not shown) [Compound 134] the “BAW HTS” value ([1]; 96-well HTS diet assay) was “B (either (1) the compound was tested and less than 50 percent mortality was observed or (2) the compound was not tested)”, the “BAW HTS” value [1, 3] was “B (either (1) the compound was tested and less than 50 percent mortality was observed or (2) the compound was not tested)” and the “BAW 50 ug/cm2” value [2] was “A (the compound was tested and at least 50 percent mortality was observed)”.

With COC1C(C)OC(ON=Cc2ccc(-c3cncc(-c4ccc(OC(F)(F)F)cc4)c3)cc2)C(OC)C1OC (stereo not shown) [Compound 135] the “BAW HTS” value ([1]; 96-well HTS diet assay) was “B (either (1) the compound was tested and less than 50 percent mortality was observed or (2) the compound was not tested)”, the “BAW HTS” value [1, 3] was “B (either (1) the compound was tested and less than 50 percent mortality was observed or (2) the compound was not tested)” and the “BAW 50 ug/cm2” value [2] was “A (the compound was tested and at least 50 percent mortality was observed)”.

COC1C(C)OC(ON=Cc2ccc(-c3ncc(-c4ccc(OC(F)(F)F)cc4)cn3)cc2)C(OC)C1OC (stereo not shown) [Compound 136] was tested, and the “BAW HTS” value ([1]; 96-well HTS diet assay) was “B (either (1) the compound was tested and less than 50 percent mortality was observed or (2) the compound was not tested)”, the “BAW HTS” value [1, 3] was “B (either (1) the compound was tested and less than 50 percent mortality was observed or (2) the compound was not tested)” and the “BAW 50 ug/cm2” value [2] was “A (the compound was tested and at least 50 percent mortality was observed)”.

With COC1C(C)OC(ON=Cc2ccc(-c3cnc(-c4ccc(OC(F)(F)F)cc4)nc3)cc2)C(OC)C1OC (stereo not shown) [Compound 137] the “BAW HTS” value ([1]; 96-well HTS diet assay) was “B (either (1) the compound was tested and less than 50 percent mortality was observed or (2) the compound was not tested)”, the “BAW HTS” value [1, 3] was “B (either (1) the compound was tested and less than 50 percent mortality was observed or (2) the compound was not tested)” and the “BAW 50 ug/cm2” value [2] was “A (the compound was tested and at least 50 percent mortality was observed)”.

COC1C(C)OC(ON=Cc2ccc(-c3nccc(-c4ccc(OC(F)(F)F)cc4)n3)cc2)C(OC)C1OC (stereo not shown) [Compound 138] was tested, and the “BAW HTS” value ([1]; 96-well HTS diet assay) was “A (the compound was tested and at least 50 percent mortality was observed)”, the “BAW HTS” value [1, 3] was “A (the compound was tested and at least 50 percent mortality was observed)” and the “BAW 50 ug/cm2” value [2] was “A (the compound was tested and at least 50 percent mortality was observed)”.
